According to article PMC6063846, “Matrine inhibits itching by lowering the activity of calcium channel” (Scientific Reports, 2018):

Molecular target: T1, N-type calcium channel (Mus musculus, UniProt O55017)
T1 construct: gene Cacna1b
Format: cell-based

T1 sequence (O55017 whole entry): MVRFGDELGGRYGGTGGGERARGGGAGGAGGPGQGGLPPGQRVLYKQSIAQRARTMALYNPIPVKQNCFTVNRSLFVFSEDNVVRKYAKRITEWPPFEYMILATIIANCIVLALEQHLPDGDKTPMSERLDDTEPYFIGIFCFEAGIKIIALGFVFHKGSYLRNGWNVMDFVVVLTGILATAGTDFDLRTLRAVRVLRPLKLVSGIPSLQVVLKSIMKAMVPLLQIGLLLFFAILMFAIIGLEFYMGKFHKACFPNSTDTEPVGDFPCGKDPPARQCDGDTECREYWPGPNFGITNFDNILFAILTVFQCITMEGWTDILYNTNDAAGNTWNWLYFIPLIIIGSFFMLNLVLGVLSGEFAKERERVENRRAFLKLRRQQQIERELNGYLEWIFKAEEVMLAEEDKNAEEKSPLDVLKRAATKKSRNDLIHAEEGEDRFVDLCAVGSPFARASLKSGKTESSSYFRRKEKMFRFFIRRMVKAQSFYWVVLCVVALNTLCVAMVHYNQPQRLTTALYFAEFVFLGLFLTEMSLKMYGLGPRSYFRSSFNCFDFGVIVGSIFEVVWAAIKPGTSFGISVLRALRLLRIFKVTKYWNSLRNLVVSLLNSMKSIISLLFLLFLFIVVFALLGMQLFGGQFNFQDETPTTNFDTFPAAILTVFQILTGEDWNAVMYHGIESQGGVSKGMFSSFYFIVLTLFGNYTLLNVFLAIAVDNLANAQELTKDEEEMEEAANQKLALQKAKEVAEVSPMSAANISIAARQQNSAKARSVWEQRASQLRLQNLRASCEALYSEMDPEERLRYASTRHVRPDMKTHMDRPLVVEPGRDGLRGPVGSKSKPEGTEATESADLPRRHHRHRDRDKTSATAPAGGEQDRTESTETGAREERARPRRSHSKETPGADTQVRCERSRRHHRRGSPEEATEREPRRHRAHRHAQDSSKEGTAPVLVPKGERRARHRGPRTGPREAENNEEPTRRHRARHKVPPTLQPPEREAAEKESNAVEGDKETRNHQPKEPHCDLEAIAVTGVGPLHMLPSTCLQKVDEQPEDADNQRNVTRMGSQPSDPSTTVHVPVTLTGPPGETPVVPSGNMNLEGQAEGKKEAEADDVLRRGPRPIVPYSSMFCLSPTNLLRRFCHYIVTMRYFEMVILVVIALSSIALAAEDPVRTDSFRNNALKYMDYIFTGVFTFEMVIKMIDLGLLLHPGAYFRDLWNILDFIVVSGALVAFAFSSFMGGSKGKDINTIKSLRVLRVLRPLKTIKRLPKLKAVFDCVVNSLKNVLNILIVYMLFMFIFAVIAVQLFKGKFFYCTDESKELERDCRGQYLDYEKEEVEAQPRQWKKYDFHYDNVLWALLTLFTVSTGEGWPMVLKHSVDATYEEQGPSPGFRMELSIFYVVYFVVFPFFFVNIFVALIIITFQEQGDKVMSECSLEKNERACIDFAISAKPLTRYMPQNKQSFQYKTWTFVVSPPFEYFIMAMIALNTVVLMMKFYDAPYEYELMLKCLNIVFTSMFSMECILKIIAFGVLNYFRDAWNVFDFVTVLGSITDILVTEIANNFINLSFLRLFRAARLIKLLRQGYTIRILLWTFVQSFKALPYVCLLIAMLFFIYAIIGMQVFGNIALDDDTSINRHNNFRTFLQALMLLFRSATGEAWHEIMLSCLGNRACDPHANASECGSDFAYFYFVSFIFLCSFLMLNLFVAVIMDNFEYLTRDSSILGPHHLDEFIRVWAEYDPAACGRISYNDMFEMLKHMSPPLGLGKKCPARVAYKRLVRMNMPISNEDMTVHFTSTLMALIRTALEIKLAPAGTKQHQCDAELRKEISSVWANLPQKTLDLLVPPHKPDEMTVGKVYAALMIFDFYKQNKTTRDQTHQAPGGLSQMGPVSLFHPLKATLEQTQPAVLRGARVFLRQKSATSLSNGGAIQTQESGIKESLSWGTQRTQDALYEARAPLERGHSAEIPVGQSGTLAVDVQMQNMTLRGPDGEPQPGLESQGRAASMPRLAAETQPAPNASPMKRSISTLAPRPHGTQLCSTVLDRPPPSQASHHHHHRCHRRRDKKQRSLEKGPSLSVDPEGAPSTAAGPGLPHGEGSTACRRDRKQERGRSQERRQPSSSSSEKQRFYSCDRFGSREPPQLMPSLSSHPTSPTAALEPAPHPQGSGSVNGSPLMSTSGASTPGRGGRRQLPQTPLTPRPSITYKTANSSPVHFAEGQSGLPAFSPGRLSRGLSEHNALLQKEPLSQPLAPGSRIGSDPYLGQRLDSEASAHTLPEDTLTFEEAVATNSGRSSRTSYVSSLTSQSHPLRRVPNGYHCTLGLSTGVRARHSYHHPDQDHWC

O=C1CCC[C@@H]2[C@H]3CCCN4CCC[C@@H](CN12)[C@@H]34 [MT, Matrine]
whole-cell patch clamp of HVA Ca2+ currents in native mouse DRG neurons, occlusi: the inhibitory effect of MT on HVA Ica current is mainly by inhibiting the N-type calcium channel
